Source: patent EP4212151B1, “STILBENE, FLAVONOL OR CURCUMIN COMPOUNDS FOR USE IN THE TREATMENT OF AGE-RELATED MACULAR DEGENERATION (AMD; ARMD)” (Knepper, Paul A., priority 2022, dated 2023)
“And” between values parts separate entries of the source, which are not always exact repeats. Identical values can stand only once. Like-named read-outs stand apart in the source and are kept apart here.

How the values were obtained:
[1] = cited from earlier work; for Half-life: human, in vivo; for Bioavailability: oral
[2] = cited from earlier work; for maximum dose (highest dose evaluated in a repeated-dose clinical trial and found safe and tolerable): human, in vivo; for dose found well tolerated, low or no toxicity: clinical trials, doses as high as
[3] = test system: Dry AMD Subjects; test: Geographic atrophy area and growth rate in dry AMD subjects, Phase 1 study, 12 months; format: in vivo, human
Method: The effect of RQC and curcumin on geographic atrophy growth was evaluated in a Phase 1 study (TABLE 5, below) TABLE 5.
The expected untreated GA growth rate reported in the literature is 1.20 mm^2/year (or 0.18 mm/year adjusted for baseline lesion area). […] The decrease in GA growth rate was highly significant (p = 0.0004) compared with untreated samples [Yehoshua, et al., 2011] and remained highly significant when adjusted for differences in baseline lesion area (p = 0.0001). […]

[4] = test system: Dry AMD Subjects; test: Drusen volume by OCT (manual segmentation, ImageJ) in dry AMD subjects, oral treatment for 18 months; format: in vivo, human; details: oral C 2660 mg/day or RQC 200/240/2660 mg/day; for Drusen Volume % Change: 18 months vs baseline; for Drusen Volume, 18 Months: after 18 months
Source text: As stated hereinabove, dry AMD is a common disease characterized by retinal pathology. A typical finding of dry AMD is the presence of drusen and/or geographic atrophy. TABLE 1 below depicts drusen volume at baseline and after 18 months according to drusen size in all participants (C or RQC). […] To compare the changes in drusen volume found in this study in subjects taking oral curcumin against what would be expected over the natural course of the disease, optical coherence tomography (OCT) scans were evaluated. OCT is a new retinal imaging technology which is useful to analyze drusen volume and geographic atrophy. Each subject was scanned 6 months before treatment. This allowed for the examination of the natural history of a subject's drusen progression compared to progression with treatment. Standard deviation (SD) is expressed in mm^3. Statistical significance was determined by Wilcoxon Rank Sum test. Drusen volume was measured by manual segmentation using ImageJ software. Drusen size was determined by the widest width of the drusen and expressed in µm. […]

[5] = test system: superactivated platelets (SAPs); test: In-vitro flow cytometry platelet assay: superactivated platelets (SAP% of all platelets) after thrombin and convulxin; combination index by CompuSyn; format: cell-based; details: Homo sapiens; for IC50: individually (single agent), read-out: IC50 for the reduction of SAPs; for inhibition at 0.01 µM: single agent 0.01 µM; for inhibition at 0.01 µM / inhibition at 0.1 µM / inhibition at 1 µM / inhibition at 5 µM / inhibition at 10 µM: read-out: % change; for inhibition at 0.1 µM: single agent 0.1 µM; for inhibition at 1 µM: single agent 1 µM; for inhibition at 5 µM: single agent 5 µM; for inhibition at 10 µM: single agent 10 µM
Source text: Briefly, platelet-rich plasma (PRP) from patients with age-related macular degeneration (n = 9) are isolated from whole blood and challenged using dual agonists thrombin and convulxin (collagen substitute) to stimulate superactivated platelets (SAPs). SAPs are defined as positive for surface fibrinogen and negative for activated integrin αIIbβ3, whereas activated platelets are defined as negative for surface fibrinogen and positive for activated integrin αIIbβ3. Surface fibrinogen is detected by pre-treating platelets with biotinylated-fibrinogen (5 µg/mL) followed by staining with any common fluorophore conjugated to streptavidin. The streptavidin-fluorophore complex binds to the biotin-fibrinogen complex present on SAPs but not activated platelets due to the differing composition of charged surface proteins. Activated integrin αIIbβ3 - characteristic of activated platelets - is detected using the PAC-1 antibody conjugated to any compatible fluorophore. […] The effect of RQC on SAPs is determined by pre-treating diluted PRP samples with combinations of R, Q, and/or C for 5 minutes at 37°C followed by challenge with thrombin and convulxin for 5 minutes at 37°C. The samples are then stained with the fluorophore-conjugates and fixed in 3% formalin before analysis using a flow cytometer. SAP percentage is calculated as a percentage of all platelets. The effect size of RQC is determined by the change ion SAP percentage before and after treatment with RQC and is used as input to calculate drug synergy using the CompuSyn software developed by Chou, et al. Drug synergy, additivism, and antagonism are defined as a combination index (CI) score less than, equal to, or greater than 1, respectively. The level of drug synergy can be further stratified by quantile, tertile, or quartile in cases where numerous synergistic doses are compared.
The average combination index values of low, medium, and high doses of RQC for the inhibition of SAPs in AMD subjects was determined. The Combination Index (CI) theorem derived by Chou-Talalay [Chou, 2010] was calculated for each combination drug treatment of R, Q, and C. The CI is useful in quantifying levels of synergism and antagonism. The theorem is based on the median-effect equation to provide a common link between a single entity and multiple entities. A CI value < 1 indicates synergism, a CI equal to 1 indicates additivity, and a CI > 1 indicates antagonism. RQC was very effective in low, medium, and high doses.
R, Q, and C at three different dose levels each were tested in all possible combinations, resulting in 27 possible double and 27 possible triple combinations within each subject. The doses tested were R (1, 5, and 10 µM), Q (1, 5, and 10 µM), and C (0.01, 0.1, and 1 µM) and the effect was based on the inhibition of SAPs. To obtain the mean number of synergistic doses in each cohort, the average CI score for each dose combination was calculated within each cohort, producing a set of 27 double combination CI scores and 27 triple combination CI scores per cohort. Out of each set of 27 dose combinations, the number of CI scores under 0.8 (highly synergistic) was counted and reported here. For example, in control subjects 5 out of 27 possible double combinations were synergistic while 25 out of 27 possible triple combinations were synergistic based on the mean CI for each dose in the cohort.

[6] = drusen ≥ 250 µm, listed as curcumin

COc1cc(/C=C/C(=O)CC(=O)/C=C/c2ccc(O)c(OC)c2)ccc1O [Curcumin, (1E,6E)-1,7-bis(4-Hydroxy-3-methoxyphenyl)-1,6-heptadiene-3,5-dione]
Half-life [1]: 5 to 6 h
Bioavailability [1]: 0.01-0.1%
Cmax ([1]; read-out: maximum plasma concentration, two capsules (1000 mg each)): 0.6 to 1 µM
maximum dose (highest dose evaluated in a repeated-dose clinical trial and found safe and tolerable) [2]: 12000 mg/day
dose safe and well tolerated ([2]; review of clinical trials, doses up to, only minimal, mostly gastrointestinal side effects): 8 to 12 g/day
Growth Rate (mm^2/y) ([3]; GA, mean of arm, 12 months of treatment): 0.68 ± 0.79 mm^2/y
Growth Rate (mm^2/y) ([3]; GA, mean of arm, 12 months of treatment, listed as curcumin): 0.68 mm^2/y
Baseline Area (mm^2) ([3]; GA, mean of arm, baseline): 1.08 ± 1.10 mm^2
Growth Rate (mm/y) ([3]; GA, mean of arm, square root transformed (adjusted for baseline lesion area), 12 months): 0.21 ± 0.25 mm/y
Growth Rate (mm/y) ([3]; GA, mean of arm, square root transformed (adjusted for baseline lesion area), 12 months, listed as curcumin): 0.21 mm/y
Area (mm^2), Baseline ([3]; geographic atrophy, individual eyes (subject c0, eye c2, GA category c7), baseline, listed as C): 1.794 mm^2 and 2.254 mm^2 and 0.147 mm^2 and 0.134 mm^2
Growth Rate (mm^2/y) ([3]; geographic atrophy, individual eyes, 12 months, listed as C): 1.462 mm^2/y and 1.258 mm^2/y and -0.037 mm^2/y and 0.037 mm^2/y
Area (mm^2), 12 mo ([3]; geographic atrophy, individual eyes, after 12 months of treatment, listed as C): 3.256 mm^2 and 3.512 mm^2 and 0.110 mm^2 and 0.171 mm^2
Growth Rate (mm/y) ([3]; geographic atrophy, individual eyes, square root transformed, 12 months, listed as C): 0.373 mm/y and 0.465 mm/y and -0.046 mm/y and 0.055 mm/y
Growth Rate (mm^2/y) ([3]; nascent GA (nGA), mean of arm, 12 months of treatment): 0.00 ± 0.05 mm^2/y
Growth Rate (mm^2/y) ([3]; nascent GA (nGA), mean of arm, 12 months of treatment, listed as curcumin): 0.005 mm^2/y
Baseline Area (mm^2) ([3]; nascent GA (nGA), mean of arm, baseline): 0.14 ± 0.01 mm^2
Growth Rate (mm/y) ([3]; nascent GA (nGA), mean of arm, square root transformed (adjusted), 12 months): 0.01 ± 0.07 mm/y
Growth Rate (mm/y) ([3]; nascent GA (nGA), mean of arm, square root transformed (adjusted), 12 months, listed as curcumin): 0.01 mm/y
Drusen Volume % Change ([4]; All drusen): -13.0%
Drusen Volume, 18 Months ([4]; All drusen): 8.70 mm^3
Drusen Volume, 18 Months ([4]; All drusen, listed as curcumin): 8.7 (± 1.6) mm^3
Drusen Volume, Baseline ([4]; All drusen): 10.1 mm^3
Drusen Volume, Baseline ([4]; All drusen, listed as curcumin): 10.1 (± 1.60) mm^3
Drusen Volume % Change ([4]; drusen 63-124 µm): 0.0%
Drusen Volume, 18 Months ([4]; drusen 63-124 µm): 0.08 mm^3
Drusen Volume, Baseline ([4]; drusen 63-124 µm): 0.08 mm^3
Drusen Volume % Change ([4]; drusen 125-249 µm): -1.6%
Drusen Volume, 18 Months ([4]; drusen 125-249 µm): 3.70 mm^3
Drusen Volume, Baseline ([4]; drusen 125-249 µm): 3.80 mm^3
Drusen Volume % Change ([4]; drusen ≥ 250 µm): -20.0%
Drusen Volume % Change [4, 6]: -30.0% and -20.0%
Drusen Volume, 18 Months ([4]; drusen ≥ 250 µm): 6.00 mm^3
Drusen Volume, 18 Months [4, 6]: 6.00 (± 1.30) mm^3
Drusen Volume, Baseline ([4]; drusen ≥ 250 µm): 7.50 mm^3
Drusen Volume, Baseline [4, 6]: 0.75 (± 1.30) mm^3
IC50 [5]: 3.6 µM
inhibition at 0.01 µM ([5]; AMD (GA) subject): 11.5%
inhibition at 0.01 µM ([5]; control subject): 24.1%
inhibition at 0.1 µM ([5]; AMD (GA) subject): 18.4%
inhibition at 0.1 µM ([5]; control subject): 36.8%
inhibition at 1 µM ([5]; AMD (GA) subject): 37%
inhibition at 1 µM ([5]; control subject): 33.7%

O=c1c(O)c(-c2ccc(O)c(O)c2)oc2cc(O)cc(O)c12 [Quercetin, 2-(3,4-dihydroxyphenyl)-3,5,7-trihydroxychromen-4-one;dihydrate]
dose found well tolerated, low or no toxicity [2]: ≤ 5 g per day
maximum dose (highest dose evaluated in a repeated-dose clinical trial and found safe and tolerable) [2]: 5000 mg/day
IC50 [5]: 31 µM
inhibition at 1 µM ([5]; AMD (GA) subject): 6.7%
inhibition at 1 µM ([5]; control subject): 36.9%
inhibition at 5 µM ([5]; AMD (GA) subject): 43.9%
inhibition at 5 µM ([5]; control subject): 38.2%
inhibition at 10 µM ([5]; AMD (GA) subject): 27.3%
inhibition at 10 µM ([5]; control subject): 24.7%

Oc1ccc(/C=C/c2cc(O)cc(O)c2)cc1 [Resveratrol, 5-[(1E)2-(4-hydroxyphenyl)ethenyl]-1,3-benzenediol]
Half-life [1]: 2 to 5 h
Bioavailability [1]: 0.1-0.4%
dose found well tolerated, low or no toxicity [2]: ≤ 5 g per day
maximum dose (highest dose evaluated in a repeated-dose clinical trial and found safe and tolerable) [2]: 5000 mg/day
IC50 [5]: 36 µM
inhibition at 1 µM ([5]; AMD (GA) subject): 8.6%
inhibition at 1 µM ([5]; control subject): 19.6%
inhibition at 5 µM ([5]; AMD (GA) subject): 17.1%
inhibition at 5 µM ([5]; control subject): 24.6%
inhibition at 10 µM ([5]; AMD (GA) subject): 18.6%
inhibition at 10 µM ([5]; control subject): 30.5%
